In patent US12552766B2, “Pesticidally active azole amide compounds” (SYNGENTA CROP PROTECTION AG, priority 2019, dated 2026):

Experiments:
Type in all cases: in vivo
[1] = tested on: Chilo suppressalis (Striped Rice Stemborer); experiment: Example B4: Chilo suppressalis, artificial diet; conditions: 144 h, application rate of 200 ppm, L2 larvae, 6 days after infestation, read-out: control in at least one of the three categories (mortality, anti-feedant effect, or growth inhibition)
Method: 24-well microtiter plates with artificial diet were treated with aqueous test solutions prepared from 10′000 ppm DMSO stock solutions by pipetting. After drying, the plates were infested with L2 larvae (6-8 per well). The samples were assessed for mortality, anti-feeding effect, and growth inhibition in comparison to untreated samples 6 days after infestation. Control of Chilo suppressalis by a test sample is given when at least one of the categories mortality, anti-feedant effect, and growth inhibition is higher than the untreated sample.

[2] = tested on: Plutella xylostella (Diamond Back Moth); experiment: Example B5: Plutella xylostella, artificial diet, 24-well; conditions: 192 h, application rate of 200 ppm, eggs, 8 days after infestation, read-out: control in at least one of the two categories (mortality or growth inhibition)
Method: 24-well microtiter plates with artificial diet were treated with aqueous test solutions prepared from 10′000 ppm DMSO stock solutions by pipetting. After drying, Plutella eggs were pipetted through a plastic stencil onto a gel blotting paper and the plate was closed with it. The samples were assessed for mortality and growth inhibition in comparison to untreated samples 8 days after infestation.

[3] = tested on: Spodoptera littoralis (Egyptian Cotton Leaf Worm); experiment: Example B9: Spodoptera littoralis, spray on cotton leaf discs; conditions: foliar, 72 h, application rate of 200 ppm, L1 larvae, 3 days after infestation, read-out: control in at least one of the three categories (mortality, anti-feedant effect, or growth inhibition)
Method: Cotton leaf discs were placed onto agar in 24-well microtiter plates and sprayed with aqueous test solutions prepared from 10′000 ppm DMSO stock solutions. After drying the leaf discs were infested with five L1 larvae. The samples were assessed for mortality, anti-feeding effect, and growth inhibition in comparison to untreated samples 3 days after infestation. Control of Spodoptera littoralis by a test sample is given when at least one of the categories mortality, anti-feedant effect, and growth inhibition is higher than the untreated sample.

[4] = tested on: Plutella xylostella (Diamondback Moth); experiment: Example B13: Plutella xylostella, artificial diet, 96-well; conditions: 216 h, application rate of 500 ppm, eggs/L1 larvae, 9 days after infestation
Method: 96-well microtiter plates containing artificial diet were treated with aqueous test solutions, prepared from 10′000 ppm DMSO stock solutions, by a liquid handling robot. After drying, eggs (˜30 per well) were infested onto a netted lid which was suspended above the diet. The eggs hatch and L1 larvae move down to the diet. The samples were assessed for mortality 9 days after infestation.

[5] = tested on: Diabrotica Balteata (Corn Root Worm); experiment: Example B1: Diabrotica balteata, spray on maize sprouts; conditions: 96 h, application rate of 200 ppm, L2 larvae, 4 days after infestation, read-out: control in at least one of the two categories (mortality or growth inhibition)
Method: Maize sprouts placed onto an agar layer in 24-well microtiter plates were treated with aqueous test solutions prepared from 10′000 ppm DMSO stock solutions by spraying. After drying, the plates were infested with L2 larvae (6 to 10 per well). The samples were assessed for mortality and growth inhibition in comparison to untreated samples 4 days after infestation.

CC(NC(=O)c1cc(OCC(F)F)cc(C(F)(F)F)c1)c1nc(Br)nn1-c1ncc(OCC(F)(F)F)cn1 (centres unmarked) [Compound P20, N-[1-[5-bromo-2-[5-(2,2,2-trifluoroethoxy)pyrimidin-2-yl]-1,2,4-triazol-3-yl]ethyl]-3-(2,2-difluoroethoxy)-5-(trifluoromethyl) benzamide]
≥ 80%: percent control (mortality, anti-feedant effect or growth inhibition) at 200 ppm [1] | percent control (mortality or growth inhibition) at 200 ppm [2] | percent control (mortality, anti-feedant effect or growth inhibition) at 200 ppm [3] | mortality at 500 ppm [4]

CC(NC(=O)c1cc(C(F)(F)F)cc(C(F)(F)F)c1)c1nc(Br)nn1-c1ncc(OCC(F)(F)F)cn1 (centres unmarked) [Compound P44, N-[1-[5-bromo-2-[5-(2,2,2-trifluoroethoxy)pyrimidin-2-yl]-1,2,4-triazol-3-yl]ethyl]-3,5-bis(trifluoromethyl) benzamide]
≥ 80%: percent control (mortality or growth inhibition) at 200 ppm [5] | percent control (mortality, anti-feedant effect or growth inhibition) at 200 ppm [1] | percent control (mortality or growth inhibition) at 200 ppm [2] | percent control (mortality, anti-feedant effect or growth inhibition) at 200 ppm [3] | mortality at 500 ppm [4]

CC(NC(=O)c1cc(Cl)cc(C(F)(F)F)c1)c1nc(Br)nn1-c1ncc(OC(F)F)cn1 (centres unmarked) [Compound P29, N-[1-[5-bromo-2-[5-(difluoromethoxy)pyrimidin-2-yl]-1,2,4-triazol-3-yl]ethyl]-3-chloro-5-(trifluoromethyl) benzamide]
≥ 80%: percent control (mortality or growth inhibition) at 200 ppm [5] | percent control (mortality, anti-feedant effect or growth inhibition) at 200 ppm [1] | percent control (mortality or growth inhibition) at 200 ppm [2] | percent control (mortality, anti-feedant effect or growth inhibition) at 200 ppm [3] | mortality at 500 ppm [4]

CC(NC(=O)c1cc(Cl)cc(C(F)(F)F)c1)c1nc(Br)nn1-c1ccc(C#N)cn1 (centres unmarked) [Compound P31, N-[1-[5-bromo-2-(5-cyano-2-pyridyl)-1,2,4-triazol-3-yl]ethyl]-3-chloro-5-(trifluoromethyl) benzamide]
≥ 80%: percent control (mortality or growth inhibition) at 200 ppm [5] | percent control (mortality, anti-feedant effect or growth inhibition) at 200 ppm [1] | percent control (mortality or growth inhibition) at 200 ppm [2] | percent control (mortality, anti-feedant effect or growth inhibition) at 200 ppm [3] | mortality at 500 ppm [4]

CC(NC(=O)c1cc(Br)cc(C(F)(F)F)c1)c1nc(Br)nn1-c1ncc(OC(F)F)cn1 (centres unmarked) [Compound P1, 3-bromo-N-[1-[5-bromo-2-[5-(difluoromethoxy)pyrimidin-2-yl]-1,2,4-triazol-3-yl]ethyl]-5-(trifluoromethyl) benzamide]
≥ 80%: percent control (mortality or growth inhibition) at 200 ppm [5] | percent control (mortality, anti-feedant effect or growth inhibition) at 200 ppm [1] | percent control (mortality or growth inhibition) at 200 ppm [2] | percent control (mortality, anti-feedant effect or growth inhibition) at 200 ppm [3] | mortality at 500 ppm [4]

CC(NC(=O)c1cc(OCC(F)(F)F)cc(C(F)(F)F)c1)c1nc(Br)nn1-c1ccc(OCC(F)F)cn1 (centres unmarked) [Compound P53, N-[1-[5-bromo-2-[5-(2,2-difluoroethoxy)-2-pyridyl]-1,2,4-triazol-3-yl]ethyl]-3-(2,2,2-trifluoroethoxy)-5-(trifluoromethyl) benzamide]
≥ 80%: percent control (mortality, anti-feedant effect or growth inhibition) at 200 ppm [1] | percent control (mortality or growth inhibition) at 200 ppm [2] | mortality at 500 ppm [4]

CC(NC(=O)c1cc(C(F)F)cc(C(F)(F)F)c1)c1nc(Br)nn1-c1ccc(C#N)cn1 (centres unmarked) [Compound P8, N-[1-[5-bromo-2-(5-cyano-2-pyridyl)-1,2,4-triazol-3-yl]ethyl]-3-(difluoromethyl)-5-(trifluoromethyl) benzamide]
≥ 80%: percent control (mortality or growth inhibition) at 200 ppm [5] | percent control (mortality, anti-feedant effect or growth inhibition) at 200 ppm [1] | percent control (mortality or growth inhibition) at 200 ppm [2] | percent control (mortality, anti-feedant effect or growth inhibition) at 200 ppm [3] | mortality at 500 ppm [4]

CC(NC(=O)c1cc(OCC(F)F)cc(C(F)(F)F)c1)c1nc(Br)nn1-c1ccc(OCC(F)F)cn1 (centres unmarked) [Compound P36, N-[1-[5-bromo-2-[5-(2,2-difluoroethoxy)-2-pyridyl]-1,2,4-triazol-3-yl]ethyl]-3-(2,2-difluoroethoxy)-5-(trifluoromethyl) benzamide]
≥ 80%: percent control (mortality or growth inhibition) at 200 ppm [2] | percent control (mortality, anti-feedant effect or growth inhibition) at 200 ppm [3] | mortality at 500 ppm [4]

CO/N=C(\C)c1nc(C(C)NC(=O)c2cc(C(F)(F)F)cc(C(F)(F)F)c2)n(-c2ccc(C#N)cn2)n1 (centres unmarked) [Compound P56, N-[1-[2-(5-cyano-2-pyridyl)-5-[(E)-N-methoxy-C-methyl-carbonimidoyl]-1,2,4-triazol-3-yl]ethyl]-3,5-bis(trifluoromethyl) benzamide]
≥ 80%: mortality at 500 ppm [4]

CC(NC(=O)c1cc(OCC(F)F)cc(C(F)(F)F)c1)c1nc(Br)nn1-c1ccc(OC(F)F)cn1 (centres unmarked) [Compound P34, N-[1-[5-bromo-2-[5-(difluoromethoxy)-2-pyridyl]-1,2,4-triazol-3-yl]ethyl]-3-(2,2-difluoroethoxy)-5-(trifluoromethyl) benzamide]
≥ 80%: percent control (mortality or growth inhibition) at 200 ppm [5] | percent control (mortality, anti-feedant effect or growth inhibition) at 200 ppm [1] | percent control (mortality or growth inhibition) at 200 ppm [2] | percent control (mortality, anti-feedant effect or growth inhibition) at 200 ppm [3]

CC(NC(=O)c1cc(OC(F)F)cc(C(F)(F)F)c1)c1nc(Br)nn1-c1ccc(OCC(F)(F)F)cn1 (centres unmarked) [Compound P38, N-[1-[5-bromo-2-[5-(2,2,2-trifluoroethoxy)-2-pyridyl]-1,2,4-triazol-3-yl]ethyl]-3-(difluoromethoxy)-5-(trifluoromethyl) benzamide]
≥ 80%: percent control (mortality or growth inhibition) at 200 ppm [5] | percent control (mortality, anti-feedant effect or growth inhibition) at 200 ppm [1] | percent control (mortality or growth inhibition) at 200 ppm [2] | percent control (mortality, anti-feedant effect or growth inhibition) at 200 ppm [3]

CC(NC(=O)c1cc(SC(F)(F)F)cc(C(F)(F)F)c1)c1nc(Br)nn1-c1ncc(OCC(F)F)cn1 (centres unmarked) [Compound P24, N-[1-[5-bromo-2-[5-(2,2-difluoroethoxy)pyrimidin-2-yl]-1,2,4-triazol-3-yl]ethyl]-3-(trifluoromethyl)-5-(trifluoromethyl-sulfanyl)benzamide]
≥ 80%: percent control (mortality or growth inhibition) at 200 ppm [5] | percent control (mortality, anti-feedant effect or growth inhibition) at 200 ppm [1] | percent control (mortality or growth inhibition) at 200 ppm [2] | percent control (mortality, anti-feedant effect or growth inhibition) at 200 ppm [3]

CC(NC(=O)c1cc(C(F)F)cc(C(F)(F)F)c1)c1nc(Br)nn1-c1ccc(OC(F)F)cn1 (centres unmarked) [Compound P51, N-[1-[5-bromo-2-[5-(difluoromethoxy)-2-pyridyl]-1,2,4-triazol-3-yl]ethyl]-3-(difluoromethyl)-5-(trifluoromethyl) benzamide]
≥ 80%: percent control (mortality or growth inhibition) at 200 ppm [5] | percent control (mortality, anti-feedant effect or growth inhibition) at 200 ppm [1] | percent control (mortality or growth inhibition) at 200 ppm [2] | percent control (mortality, anti-feedant effect or growth inhibition) at 200 ppm [3]

CC(NC(=O)c1cc(SC(F)(F)F)cc(C(F)(F)F)c1)c1nc(Br)nn1-c1ccc(C#N)cn1 (centres unmarked) [Compound P5, N-[1-[5-bromo-2-(5-cyano-2-pyridyl)-1,2,4-triazol-3-yl]ethyl]-3-(trifluoromethyl)-5-(trifluoromethylsulfanyl)benzamide]
≥ 80%: percent control (mortality or growth inhibition) at 200 ppm [5] | percent control (mortality, anti-feedant effect or growth inhibition) at 200 ppm [1] | percent control (mortality or growth inhibition) at 200 ppm [2] | percent control (mortality, anti-feedant effect or growth inhibition) at 200 ppm [3]
